Tests used:
[1] = test system: Endothelial cells (HUVECs); assay: Assessment of HGF/SF-like activity: HUVEC proliferation (3H thymidine incorporation / Cell titer Glo); type: cell-based, human; settings: test compounds 10 μM (or 0.01 to 25 micromolar), 24 hr; growth compared to 50 ng/mL HGF control
Description: 1. Assessment of HGF/SF-like activity: The following assay is performed to assess the HGF/SF-like activity of the compounds of the invention. Endothelial cells (HUVECs) are seeded in 48 well plates at a density of 10,000 to 20,000 cells per well in the normal growth medium (EGM-2-Clonetics) containing 2% fetal bovine serum, FGF, VEGF, IGF, ascorbic acid, EGF, GA, heparin and hydrocortisone. The cells are grown normally in the growth medium for 24 hr at 37° C. and 5% CO2. The cells are then rinsed with RPMI-1% BSA and are starved for 1-2 hrs. The stock solutions of the compounds of the invention are made at a concentration of 10 mg/ml in DMSO and are diluted in RPMI-1% BSA at a final concentrations of 0.01 micromolar to 25 micromolar. The cells are then washed and are treated with the compounds and are incubated for another 24 hr at 37° C. Then ^3H thymidine (0.5 microgram/ml in RPMI-BSA) is added to the cells and they are incubated at 37° C. for 4 to 5 hours. The unincorporated thymidine is removed by washing the cells four times with 1×PBS. Then the cells are lysed with 0.5M NaOH for 30 min and the radioactivity is counted in the beta counter. A similar proliferation assay using monkey bronchial epithelial cells (4 MBR-5) is also employed.
In another assay format, HUVEC cells were grown in EGM-2 medium (Lonza) with 5% FBS to 80% confluence at 37° C. and in 5% CO2. Cells were plated in a white opaque flat bottom 96 well plate at a density of 10000 cells per well and in a volume of 100 μL, and incubated overnight and starved by washing twice in serum-free EGM-2 media. After 2 hours, cells were treated with 100 μL EGM-2 medium containing 10 μM test compounds and incubated for an additional 24 hours at 37° C. (All compounds were in DMSO and the final concentration of DMSO in the assay was 0.1%). In all experiments, serum (5%) and HGF (50 ng/mL final) were run as positive controls and DMSO vehicle was run as a negative control. 10 μL Cell titer Glo reagent (Promega) was added to each well and plates were mixed by gentle tapping. After 10 minutes at room temperature, plates were read on a Packard Top Count Luminescence plate reader. Proliferation was expressed as a percentage of growth compared to 50 ng/mL HGF control, with the DMSO control representing 0% growth and the HGF control representing 100% growth.

[2] = MTT cell viability assay, protection from adriamycin-induced apoptosis; settings: dog, MDCK cells
Description: (§1) Using the MTT cell viability assay the ability of compounds of the invention to protect cells from adriamycin-induced apoptosis is tested.

[3] = test system: LX2 cells (collagen I mRNA); assay: Antifibrotic activity: collagen I mRNA by real time PCR in LX2 hepatic stellate cells; type: cell-based, human; settings: serum starved LX2 cells, 24 hours, HGF 100 ng/ml
Description: 2. Antifibrotic Activity of HGF and compounds of the invention in vitro and in vivo. The antifibrotic effects of HGF and compounds of the invention in the immortalized human hepatic stellate cell line LX2 are determined. Serum starved LX2 cells are treated for 24 hours with HGF at 100 ng/ml and compounds of the invention at doses ranging from 12 to 24 ug/ml. RNA is then isolated and real time PCR is performed to evaluate changes in collagen I mRNA. Results typically indicate a 90% and 70% decrease in collagen I mRNA expression in cells treated with instant compounds and HGF, respectively. Additional experiments to determine the effects of HGF and compounds on TGFb-1, bPDGF-R and MMP-1 mRNA are also performed to more completely characterize activities of these compounds which can contribute to their antifibrotic effects.

Description for MDCK cells: as §1

Row | Molecule | HGF/SF-like activity (HUVEC proliferation) [1] | further results
1 | CCn1c(C)nc2cc(-c3ccccc3)ccc21 [1-ethyl-2-methyl-5-phenyl-1H-benzo[d]imidazole] | active | 
2 | CC(C)N1CC(c2nc(-c3ccc4ccccc4c3)c[nH]2)CC1=O (centres unmarked) [1-isopropyl-4-(4-(naphthalen-2-yl)-1H-imidazol-2-yl)pyrrolidin-2-one] | active | 
3 | C(=Cc1cccs1)c1ccc[nH]1 [2-(2-(thiophen-2-yl)vinyl)-1H-pyrrole] | active | 
4 | Nc1ccc(C=Cc2nc3cc(N)ccc3[nH]2)cc1 [2-(4-aminostyryl)-1H-benzo[d]imidazol-5-amine] | active | 
5 | c1ccc2cc(-c3ncc[nH]3)ccc2c1 [2-(naphthalen-2-yl)-1H-imidazole] | active | 
6 | C(=Cc1ncc[nH]1)c1ccccc1 [2-styryl-1H-imidazole] | active | 
7 | CSc1nnc(C=Cc2cccs2)[nH]1 [3-(methylthio)-5-(2-(thiophen-2-yl)vinyl)-4H-1,2,4-triazole] | active | 
8 | c1ccc2cc(-c3cnc[nH]3)ccc2c1 [5-(naphthalen-2-yl)-1H-imidazole] | active | 
9 | c1ccc2cc(-c3nnn[nH]3)ccc2c1 [5-(naphthalen-2-yl)-1H-tetrazole] | active | 
10 | C(=Cc1cnc[nH]1)c1ccccc1 [5-styryl-1H-imidazole] | active | 
11 | C(=Cc1nnn[nH]1)c1ccccc1 [5-styryl-1H-tetrazole] | active | 
12 | Nc1nnc(C=Cc2ccccc2)[nH]1 [5-styryl-4H-1,2,4-triazol-3-amine] | active | 
13 | c1coc(-c2ccc3cn[nH]c3c2)c1 [6-(furan-2-yl)-1H-indazole] | active | 
14 | c1cc(-c2ccc3cn[nH]c3c2)co1 [6-(furan-3-yl)-1H-indazole] | active | 
15 | c1csc(-c2ccc3cn[nH]c3c2)c1 [6-(thiophen-2-yl)-1H-indazole] | active | 
16 | c1cc(-c2ccc3cn[nH]c3c2)cs1 [6-(thiophen-3-yl)-1H-indazole] | active | 
17 | COc1cccc2c1C(=O)c1c(O)c3c(c(O)c1C2=O)C[C@@](O)(C(=O)CO)C[C@@H]3O[C@H]1C[C@H](N)[C@H](O)[C@H](C)O1 [Adriamycin, adriamycin] |  | viability [2]: 56%
18 | CS(=O)(=O)Nc1ccc(-c2ccc3nc[nH]c3c2)cc1 [N-(4-(1H-benzo[d]imidazol-6-yl)phenyl)methanesulfonamide] | active | 
19 | HGF: Scatter factor / hepatocyte growth factor, pleiotropic growth factor used as positive control |  | decrease in collagen I mRNA expression [3]: 70%; cell viability after pretreatment, then adriamycin (MDCK cells): 94%

— patent publication US20110237633A1, “SMALL MOLECULE MODULATORS OF HEPATOCYTE GROWTH FACTOR (SCATTER FACTOR) ACTIVITY” (priority 2008, published 2011)
